Test: GoMiner gene ontology analysis of differentially regulated genes
Design: species or system human
[1] = Cellular component: Chromosome, GO 0005694, Total 108
[2] = Cellular component: Cytoplasm, GO 0005737, Total 1705
[3] = Cellular component: Cytoplasmic vesicle, GO 0016023, Total 59
[4] = Cellular component: Cytoskeleton, GO 0005856, Total 334
[5] = Cellular component: Cytosol, GO 0005829, Total 176
[6] = Cellular component: Endoplasmic reticulum, GO 0005783, Total 244
[7] = Cellular component: Extracellular, GO 0005576, Total 586
[8] = Cellular component: Membrane, GO 0016020, Total 1976
[9] = Cellular component: Mitochondrion, GO 0005739, Total 315
[10] = Cellular component: Nucleus, GO 0005634, Total 1483
[11] = Cellular component: Ribosome, GO 0005840, Total 61
[12] = Cellular component: actin cytoskeleton, GO 0015629, Total 120
[13] = Cellular component: endomembrane system, GO 0012505, Total 112
[14] = Cellular component: extracellular matrix, GO 0005578, Total 181
[15] = Cellular component: extracellular space, GO 0005615, Total 228
[16] = Cellular component: integral to membrane, GO 0016021, Total 1549
[17] = Cellular component: microtubule cytoskeleton, GO 0015630, Total 78
[18] = Cellular component: mitochondrial membrane, GO 0005740, Total 75
[19] = Cellular component: nuclear membrane, GO 0005635, Total 50
[20] = Cellular component: nucleolus, GO 0005730, Total 39
[21] = Cellular component: nucleoplasm, GO 0005654, Total 91
[22] = Cellular component: plasma membrane, GO 0005886, Total 1041
[23] = Molecular function: Apoptosis regulator activity, GO 0016329, Total 44
[24] = Molecular function: Binding, GO 0005488, Total 3368
[25] = Molecular function: Catalytic activity, GO 0003824, Total 2129
[26] = Molecular function: Cell adhesion molecule activity, GO 0005194, Total 209
[27] = Molecular function: Defense/immunity protein activity, GO 0003793, Total 36
[28] = Molecular function: Enzyme regulator activity, GO 0030234, Total 306
[29] = Molecular function: Motor activity, GO 0003774, Total 61
[30] = Molecular function: Obsolete molecular function, GO 0008369, Total 419
[31] = Molecular function: Signal transducer activity, GO 0004871, Total 1157
[32] = Molecular function: Structural molecule activity, GO 0005198, Total 333
[33] = Molecular function: Transcription regulator activity, GO 0030528, Total 630
[34] = Molecular function: Translation regulator activity, GO 0045182, Total 43
[35] = Molecular function: Transporter activity, GO 0005215, Total 822
[36] = Molecular function: carrier activity, GO 0005386, Total 239
[37] = Molecular function: electron transporter activity, GO 0005489, Total 138
[38] = Molecular function: enzyme inhibitor activity, GO 0004857, Total 132
[39] = Molecular function: extracellular matrix structural constituent, GO 0005201, Total 60
[40] = Molecular function: hydrolase activity, GO 0016787, Total 917
[41] = Molecular function: kinase activity, GO 0016301, Total 409
[42] = Molecular function: lipid binding, GO 0008289, Total 94
[43] = Molecular function: metal ion binding, GO 0046872, Total 631
[44] = Molecular function: nucleic acid binding, GO 0003676, Total 1232
[45] = Molecular function: nucleotide binding, GO 0000166, Total 763
[46] = Molecular function: oxidoreductase activity, GO 0016491, Total 320
[47] = Molecular function: protein binding, GO 0005515, Total 814
[48] = Molecular function: receptor activity, GO 0004872, Total 678
[49] = Molecular function: receptor binding (under Binding), GO 0005102, Total 301
[50] = Molecular function: receptor binding (under Signal transducer activity), GO 0005102, Total 301
[51] = Molecular function: receptor signaling protein activity, GO 0005057, Total 127
[52] = Molecular function: structural constituent of cytoskeleton, GO 0005200, Total 62
[53] = Molecular function: transcription factor activity, GO 0003700, Total 472
[54] = Molecular function: transferase activity, GO 0016740, Total 706

SMILES: Nc1ncn([C@H]2C[C@H](O)[C@@H](CO)O2)c(=O)n1 [5-aza-dC, 5-aza-2′-deoxycytidine]
- 5-aza-dC Up (Cellular component: Cellular—component unknown, GO 0008372, Total 266): 8
- 5-aza-dC Down [1]: 0
- 5-aza-dC Up [1]: 10
- 5-aza-dC Down [2]: 9
- 5-aza-dC Up [2]: 30
- 5-aza-dC Down [3]: 0
- 5-aza-dC Up [3]: 2
- 5-aza-dC Down [4]: 1
- 5-aza-dC Up [4]: 4
- 5-aza-dC Down [5]: 1
- 5-aza-dC Up [5]: 2
- 5-aza-dC Down [6]: 1
- 5-aza-dC Up [6]: 4
- 5-aza-dC Down [7]: 1
- 5-aza-dC Up [7]: 23
- 5-aza-dC Down [8]: 6
- 5-aza-dC Up [8]: 24
- 5-aza-dC Down [9]: 2
- 5-aza-dC Up [9]: 3
- 5-aza-dC Down [10]: 7
- 5-aza-dC Up [10]: 44
- 5-aza-dC Down [11]: 1
- 5-aza-dC Up [11]: 1
- 5-aza-dC Down [12]: 0
- 5-aza-dC Up [12]: 0
- 5-aza-dC Down [13]: 0
- 5-aza-dC Up [13]: 1
- 5-aza-dC Down [14]: 0
- 5-aza-dC Up [14]: 4
- 5-aza-dC Down [15]: 0
- 5-aza-dC Up [15]: 13
- 5-aza-dC Down [16]: 5
- 5-aza-dC Up [16]: 18
- 5-aza-dC Down [17]: 1
- 5-aza-dC Up [17]: 0
- 5-aza-dC Down [18]: 0
- 5-aza-dC Up [18]: 0
- 5-aza-dC Down [19]: 0
- 5-aza-dC Up [19]: 0
- 5-aza-dC Down [20]: 0
- 5-aza-dC Up [20]: 1
- 5-aza-dC Down [21]: 0
- 5-aza-dC Up [21]: 5
- 5-aza-dC Down [22]: 3
- 5-aza-dC Up [22]: 13
- 5-aza-dC Down [23]: 0
- 5-aza-dC Up [23]: 4
- 5-aza-dC Down [24]: 9
- 5-aza-dC Up [24]: 83
- 5-aza-dC Down [25]: 12
- 5-aza-dC Up [25]: 43
- 5-aza-dC Down [26]: 0
- 5-aza-dC Up [26]: 3
- 5-aza-dC Down [27]: 0
- 5-aza-dC Up [27]: 1
- 5-aza-dC Down [28]: 5
- 5-aza-dC Up [28]: 6
- 5-aza-dC Down [29]: 0
- 5-aza-dC Up [29]: 0
- 5-aza-dC Down [30]: 1
- 5-aza-dC Up [30]: 12
- 5-aza-dC Down [31]: 5
- 5-aza-dC Up [31]: 23
- 5-aza-dC Down [32]: 3
- 5-aza-dC Up [32]: 4
- 5-aza-dC Down [33]: 0
- 5-aza-dC Up [33]: 18
- 5-aza-dC Down [34]: 1
- 5-aza-dC Up [34]: 1
- 5-aza-dC Down [35]: 1
- 5-aza-dC Up [35]: 14
- 5-aza-dC Down [36]: 1
- 5-aza-dC Up [36]: 3
- 5-aza-dC Down [37]: 1
- 5-aza-dC Up [37]: 5
- 5-aza-dC Down [38]: 2
- 5-aza-dC Up [38]: 4
- 5-aza-dC Down [39]: 0
- 5-aza-dC Up [39]: 1
- 5-aza-dC Down [40]: 4
- 5-aza-dC Up [40]: 25
- 5-aza-dC Down [41]: 3
- 5-aza-dC Up [41]: 2
- 5-aza-dC Down [42]: 0
- 5-aza-dC Up [42]: 1
- 5-aza-dC Down [43]: 0
- 5-aza-dC Up [43]: 12
- 5-aza-dC Down [44]: 6
- 5-aza-dC Up [44]: 36
- 5-aza-dC Down [45]: 3
- 5-aza-dC Up [45]: 10
- 5-aza-dC Down [46]: 2
- 5-aza-dC Up [46]: 6
- 5-aza-dC Down [47]: 1
- 5-aza-dC Up [47]: 26
- 5-aza-dC Down [48]: 4
- 5-aza-dC Up [48]: 11
- 5-aza-dC Down [49]: 1
- 5-aza-dC Up [49]: 14
- 5-aza-dC Down [50]: 1
- 5-aza-dC Up [50]: 14
- 5-aza-dC Down [51]: 0
- 5-aza-dC Up [51]: 0
- 5-aza-dC Down [52]: 0
- 5-aza-dC Up [52]: 1
- 5-aza-dC Down [53]: 0
- 5-aza-dC Up [53]: 12
- 5-aza-dC Down [54]: 5
- 5-aza-dC Up [54]: 8
